The text below walks through data of patent publication US12624044B2, “SMARCA degraders and uses thereof” (Kymera Therapeutics, Inc., priority 2019, dated 2026).

The structures appear in SMILES notation. Some results are limits rather than exact numbers.

The test addresses SMARCA2 (Homo sapiens, UniProt P51531). In words: MSD SMARCA2 degradation in A549 cell line. The note with it: 24 h; for Dmax: A549, A549 cells; for DC50: A549 cells, read-out: SMARCA2 MSD A549 degradation 24 h: Average external-Abs DC50. Format: cell-based. As for the experimental part: Cells were seeded into 96-well plates (A549 cells: 2×10^4 cells/well/100 ul media) abd incubated overnight. The next day, 200 nl compound were added into the intermediate plate with Echo (Labcyte 550) from source plate containing a 3-fold serial dilution from top concentration of 1 mM. The culture medium was changed with 80 ul of fresh medium and 80 ul of 2× compound solution was added into the well to make a final concentration of 1000 nM, 333.3 nM, 111.1 nM, 37.04 nM, 12.35 nM, 4.115 nM, 1.372 nM, 0.457 nM, 0.152 nM and 0 nM (DMSO). The wells were mixed and then incubated for 24 hours. The media was aspirated from the cultures and 60 ul pre-chilled PIPA lysis buffer (Boston BioProducts BP-115D) with protease/phosphatase inhibitor (Roche 05892791001/Roche 04906837001) was added into the well to lyze the cells for 20 minutes at 4° C. The MSD plate (L15XA) was coated with 40 ul cell lysate and incubated at 4° C. overnight. The next day, the plate was washed three times with TBST (CST #9997S), 150 ul/well. The MSD plates was blocked with 150 ul blocking buffer per well and shaked for 1 hr at RT, 600 rpm. The blocking buffer was 3% Blocker A (MSD, R93BA-4) in TBST. The MSD plate was washed three times with 150 ul/well of TBST and 25 ul/well of detection antibody (Rabbit anti-SMARCA2/BRM antibody, 100 μg/ml, ab223735) was added at final concentration of 1 ug/ml diluted in 1% Blocking buffer and shaken for 1 hour at RT, 600 rpm. The MSD plate was washed three times with 150 ul/well of TBST and 25 ul/well of SULFO-TAG anti-rabbit antibody (MSD, R32AB-1) was added at final concentration of 1 ug/ml diluted in 1% Blocking buffer and shaken for 1 hour at RT, 600 rpm. The MSD plate was washed three times with 150 ul/well of TBST and 150 ul/well of 2×MSD reading buffer diluted from 4× (MSD, R92TC-2) with water was added. Lastly, the MSD instrument was read.
The letter codes for the percentage of SMARCA2 degradation after 24 hours (Dmax %) include: A (>90% degradation), B (>70-90% degradation), C (50-70% degradation), and D (<50% degradation).

Chain of SMARCA2 (P51531 whole entry): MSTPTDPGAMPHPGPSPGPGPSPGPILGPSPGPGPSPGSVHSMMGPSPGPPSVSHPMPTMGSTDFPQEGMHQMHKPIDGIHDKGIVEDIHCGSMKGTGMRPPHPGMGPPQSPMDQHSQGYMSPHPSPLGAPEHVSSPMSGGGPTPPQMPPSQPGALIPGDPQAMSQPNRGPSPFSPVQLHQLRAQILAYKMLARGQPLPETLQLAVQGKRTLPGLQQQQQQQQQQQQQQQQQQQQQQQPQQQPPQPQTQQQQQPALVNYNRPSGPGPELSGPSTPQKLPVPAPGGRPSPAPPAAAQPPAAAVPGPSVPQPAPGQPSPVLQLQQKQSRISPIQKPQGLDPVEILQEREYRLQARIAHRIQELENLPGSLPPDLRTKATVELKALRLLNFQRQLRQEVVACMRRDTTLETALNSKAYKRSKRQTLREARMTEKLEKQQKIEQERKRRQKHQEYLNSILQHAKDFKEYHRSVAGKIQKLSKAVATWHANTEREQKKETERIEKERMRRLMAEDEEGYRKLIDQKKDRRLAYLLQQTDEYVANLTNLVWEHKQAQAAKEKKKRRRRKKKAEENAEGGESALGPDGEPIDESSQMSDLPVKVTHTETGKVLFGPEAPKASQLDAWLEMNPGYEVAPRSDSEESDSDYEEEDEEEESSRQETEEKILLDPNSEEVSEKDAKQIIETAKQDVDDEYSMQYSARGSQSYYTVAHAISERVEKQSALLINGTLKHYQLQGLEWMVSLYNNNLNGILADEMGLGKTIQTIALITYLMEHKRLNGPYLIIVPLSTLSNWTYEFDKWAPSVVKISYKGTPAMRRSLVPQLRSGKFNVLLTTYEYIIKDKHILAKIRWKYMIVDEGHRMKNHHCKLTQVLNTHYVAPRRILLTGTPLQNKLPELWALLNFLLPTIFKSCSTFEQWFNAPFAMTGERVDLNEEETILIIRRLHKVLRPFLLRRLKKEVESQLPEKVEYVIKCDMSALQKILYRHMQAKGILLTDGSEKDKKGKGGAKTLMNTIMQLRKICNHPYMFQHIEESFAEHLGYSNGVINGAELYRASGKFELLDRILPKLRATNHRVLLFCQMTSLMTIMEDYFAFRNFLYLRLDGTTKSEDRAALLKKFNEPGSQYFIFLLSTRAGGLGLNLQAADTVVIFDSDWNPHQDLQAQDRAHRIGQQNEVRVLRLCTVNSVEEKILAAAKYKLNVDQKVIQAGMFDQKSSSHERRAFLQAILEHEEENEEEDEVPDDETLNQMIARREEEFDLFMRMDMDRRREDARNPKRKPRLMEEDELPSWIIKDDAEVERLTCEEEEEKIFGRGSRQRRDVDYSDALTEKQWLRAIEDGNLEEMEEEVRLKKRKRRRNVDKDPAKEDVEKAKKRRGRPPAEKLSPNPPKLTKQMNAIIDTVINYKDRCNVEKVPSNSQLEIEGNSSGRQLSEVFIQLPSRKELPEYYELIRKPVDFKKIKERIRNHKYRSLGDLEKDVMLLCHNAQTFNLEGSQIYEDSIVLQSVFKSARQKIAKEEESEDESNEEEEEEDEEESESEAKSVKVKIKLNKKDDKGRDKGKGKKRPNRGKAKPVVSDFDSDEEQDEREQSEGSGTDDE

As to `Cc1ncsc1-c1ccc(CNC(=O)[C@@H]2C[C@@H](O)CN2C(=O)[C@@H](NC(=O)[C@H]2CC3(C[C@H](CN4CCC(n5cc(-c6cc(-c7ccccc7O)nnc6N)cn5)CC4)C3)C2)C(C)(C)C)cc1` (stereo partly shown) [I-432], the greatest degradation seen (Dmax) is over 90% and the 50% degradation concentration (DC50) was 0.1 to 0.5 µM.

As for `Cc1ncsc1-c1ccc(CNC(=O)[C@@H]2C[C@@H](O)CN2C(=O)[C@@H](NC(=O)[C@H]2CC[C@@H](N3CCC(N4CCC(n5cc(-c6cc(-c7ccccc7O)nnc6N)cn5)CC4)CC3)CC2)C(C)(C)C)cc1` [I-435], the greatest degradation seen (Dmax) is under 50% and the DC50 was over 1 µM. Turning to `Cc1ncsc1-c1ccc(CNC(=O)[C@@H]2C[C@@H](O)CN2C(=O)[C@@H](NC(=O)[C@H]2CC[C@@H](N3CC(c4cnc(N5C6CCC5CN(c5cc(-c7ccccc7O)nnc5N)C6)nc4)C3)CC2)C(C)(C)C)cc1` [I-436], the Dmax was over 90% and the DC50 is 0.1 to 0.5 µM. For `Cc1ncsc1-c1ccc(CNC(=O)[C@@H]2C[C@@H](O)CN2C(=O)[C@@H](NC(=O)[C@H]2CC[C@@H](c3cnc(N4C5CCC4CN(c4cc(-c6ccccc6O)nnc4N)C5)nc3C)CC2)C(C)(C)C)cc1` [I-440] the same measures were over 90% and 0.1 to 0.5 µM. Consider `Cc1ncsc1-c1ccc(CNC(=O)[C@@H]2C[C@@H](O)CN2C(=O)[C@@H](NC(=O)[C@H]2CC3CCC2C[C@@H]3c2cnc(N3C4CCC3CN(c3cc(-c5ccccc5O)nnc3N)C4)nc2)C(C)(C)C)cc1` (stereo partly shown) [I-441], for which the Dmax was over 90% and the DC50 lay within 0.1 to 0.5 µM. For `Cc1ncsc1-c1ccc(CNC(=O)[C@@H]2C[C@@H](O)CN2C(=O)[C@@H](NC(=O)C2CC3CCC2C[C@H]3c2cnc(N3C4CCC3CN(c3cc(-c5ccccc5O)nnc3N)C4)nc2)C(C)(C)C)c(C(F)(F)F)c1` (stereo partly shown) [I-442] the same measures were 50 to 70% and 0.501 to 1 µM. Turning to `Cc1ncsc1-c1ccc(CNC(=O)[C@@H]2C[C@@H](O)CN2C(=O)[C@@H](NC(=O)[C@H]2C[C@]3(C[C@H](CN(C)Cc4cnc(N5C6CCC5CN(c5cc(-c7ccccc7O)nnc5N)C6)nc4)C3)C2)C(C)(C)C)cc1` (stereo partly shown) [I-443], the 50% degradation concentration (DC50) was in the range of 0.1 to 0.5 µM. In the case of `Cc1ncsc1-c1ccc(CNC(=O)[C@@H]2C[C@@H](O)CN2C(=O)[C@@H](NC(=O)CCN2CCC(n3cc(-c4cc(-c5ccccc5O)nnc4N)cn3)CC2)C(C)(C)C)cc1` [I-458], the Dmax is under 50% and the DC50 is over 1 µM. Take `Cc1ncsc1-c1ccc(CNC(=O)[C@@H]2C[C@@H](O)CN2C(=O)[C@@H](NC(=O)CCN(C)Cc2ccc(N3CCN(c4cc(-c5ccccc5O)nnc4N)CC3)cc2)C(C)(C)C)cc1` [I-463]: the Dmax was under 50% and the 50% degradation concentration (DC50) is over 1 µM. For `Cc1ncsc1-c1ccc(CNC(=O)[C@@H]2C[C@@H](O)CN2C(=O)[C@@H](NC(=O)CCCN(C)Cc2ccc(N3CCN(c4cc(-c5ccccc5O)nnc4N)CC3)cc2)C(C)(C)C)cc1` [I-464] the same measures were under 50% and over 1 µM. Regarding `Cc1ncsc1-c1ccc(CNC(=O)[C@@H]2C[C@@H](O)CN2C(=O)[C@@H](NC(=O)CCN2CCC(Cn3cc(-c4cc(-c5ccccc5O)nnc4N)cn3)CC2)C(C)(C)C)cc1` [I-466], the Dmax is under 50% and the DC50 is over 1 µM.

With `Cc1ncsc1-c1ccc(CNC(=O)[C@@H]2C[C@@H](O)CN2C(=O)[C@@H](NC(=O)CCN2CCC[C@@H](Cn3cc(-c4cc(-c5ccccc5O)nnc4N)cn3)C2)C(C)(C)C)cc1` [I-470], the Dmax is under 50% and the DC50 was over 1 µM.

In the case of `Cc1ncsc1-c1ccc(CNC(=O)[C@@H]2C[C@@H](O)CN2C(=O)[C@@H](NC(=O)CCCN2CCN(Cc3ccc(-c4cc(-c5ccccc5O)nnc4N)cc3)CC2)C(C)(C)C)cc1` [I-475, (2S,4R)-1-((S)-2-(4-(4-(4-(3-amino-6-(2-hydroxyphenyl)pyridazin-4-yl)benzyl)piperazin-1-yl)butanamido)-3,3-dimethylbutanoyl)-4-hydroxy-N-(4-(4-methylthiazol-5-yl)benzyl)pyrrolidine-2-carboxamide], the maximal degradation (Dmax) is under 50% and the 50% degradation concentration (DC50) is over 1 µM. For `Cc1ncsc1-c1ccc(CNC(=O)[C@@H]2C[C@@H](O)CN2C(=O)[C@@H](NC(=O)CNCc2cccc(C#Cc3cc(NC(=O)Nc4cc(F)ncc4CO)ccn3)c2)C(C)(C)C)cc1` [I-487, (2S,4R)-1-((S)-2-(2-((3-((4-(3-(2-fluoro-5-(hydroxymethyl)pyridin-4-yl)ureido)pyridin-2-yl)ethynyl)benzyl)amino)acetamido)-3,3-dimethylbutanoyl)-4-hydroxy-N-(4-(4-methylthiazol-5-yl)benzyl)pyrrolidine-2-carboxamide] the same measures were under 50% and over 1 µM. For `Cc1ncsc1-c1ccc(CNC(=O)[C@@H]2C[C@@H](O)CN2C(=O)[C@@H](NC(=O)CCCNCc2cccc(C#Cc3cc(NC(=O)Nc4cc(F)ncc4CO)ccn3)c2)C(C)(C)C)cc1` [I-488] the same measures were under 50% and over 1 µM.

Consider `Cc1ncsc1-c1ccc(CNC(=O)[C@@H]2C[C@@H](O)CN2C(=O)[C@@H](NC(=O)CCCCCNCc2cccc(C#Cc3cc(NC(=O)Nc4cc(F)ncc4CO)ccn3)c2)C(C)(C)C)cc1` [I-489], for which the greatest degradation seen (Dmax) was under 50% and the half-maximal degradation concentration (DC50) is over 1 µM. Take `Cc1ncsc1-c1ccc(CNC(=O)[C@@H]2C[C@@H](O)CN2C(=O)[C@@H](NC(=O)CCCCCCCNCc2cccc(C#Cc3cc(NC(=O)Nc4cc(F)ncc4CO)ccn3)c2)C(C)(C)C)cc1` [I-490]: the Dmax was under 50% and the DC50 was over 1 µM. Turning to `Cc1ncsc1-c1ccc(CNC(=O)[C@@H]2C[C@@H](O)CN2C(=O)[C@@H](NC(=O)CNCc2ccc(C#Cc3cc(NC(=O)Nc4cc(F)ncc4CO)ccn3)cc2)C(C)(C)C)cc1` [I-491], the greatest degradation seen (Dmax) is under 50% and the DC50 is over 1 µM. With `Cc1ncsc1-c1ccc(CNC(=O)[C@@H]2C[C@@H](O)CN2C(=O)[C@@H](NC(=O)CCCCCNCc2ccc(C#Cc3cc(NC(=O)Nc4cc(F)ncc4CO)ccn3)cc2)C(C)(C)C)cc1` [I-493], the Dmax was under 50% and the DC50 was over 1 µM. On to `Cc1ncsc1-c1ccc(CNC(=O)[C@@H]2C[C@@H](O)CN2C(=O)[C@@H](NC(=O)CCCCCCCNCc2ccc(C#Cc3cc(NC(=O)Nc4cc(F)ncc4CO)ccn3)cc2)C(C)(C)C)cc1` [I-494], for which the greatest degradation seen (Dmax) is under 50% and the DC50 was over 1 µM. On to `Cc1ncsc1-c1ccc(CNC(=O)[C@@H]2C[C@@H](O)CN2C(=O)[C@@H](NC(=O)CCCN(C)CC#Cc2cnc(N3C4CCC3CN(c3cc(-c5ccccc5O)nnc3N)C4)nc2)C(C)(C)C)cc1` [I-497], for which the Dmax is under 50% and the DC50 was over 1 µM.

With `Cc1ncsc1-c1ccc(CNC(=O)[C@@H]2C[C@@H](O)CN2C(=O)[C@@H](NC(=O)CN2CCC(c3cccc(C#Cc4cc(NC(=O)Nc5cc(F)ncc5CO)ccn4)c3)CC2)C(C)(C)C)cc1` [I-498], the Dmax is under 50% and the half-maximal degradation concentration (DC50) was over 1 µM. As for `Cc1ncsc1-c1ccc(CNC(=O)[C@@H]2C[C@@H](O)CN2C(=O)[C@@H](NC(=O)CCCN2CCC(c3cccc(C#Cc4cc(NC(=O)Nc5cc(F)ncc5CO)ccn4)c3)CC2)C(C)(C)C)cc1` [I-499, (2S,4R)-1-[(2S)-2-[4-[4-[3-[2-[4-[[2-fluoro-5-(hydroxymethyl)-4-pyridyl]carbamoylamino]-2-pyridyl]ethynyl]phenyl]-1-piperidyl]butanoylamino]-3,3-dimethyl-butanoyl]-4-hydroxy-N-[[4-(4-methylthiazol-5-yl)phenyl]methyl]pyrrolidine-2-carboxamide], the Dmax is under 50% and the 50% degradation concentration (DC50) was over 1 µM. For `Cc1ncsc1-c1ccc(CNC(=O)[C@@H]2C[C@@H](O)CN2C(=O)[C@@H](NC(=O)CN2CCC(c3ccc(C#Cc4cc(NC(=O)Nc5cc(F)ncc5CO)ccn4)cc3)CC2)C(C)(C)C)cc1` [I-500, (2S,4R)-1-((S)-2-(2-(4-(4-((4-(3-(2-fluoro-5-(hydroxymethyl)pyridin-4-yl)ureido)pyridin-2-yl)ethynyl)phenyl)piperidin-1-yl)acetamido)-3,3-dimethylbutanoyl)-4-hydroxy-N-(4-(4-methylthiazol-5-yl)benzyl)pyrrolidine-2-carboxamide], the Dmax is under 50% and the 50% degradation concentration (DC50) was over 1 µM. Take `Cc1ncsc1-c1ccc(CNC(=O)[C@@H]2C[C@@H](O)CN2C(=O)[C@@H](NC(=O)CCCN2CCC(c3ccc(C#Cc4cc(NC(=O)Nc5cc(F)ncc5CO)ccn4)cc3)CC2)C(C)(C)C)cc1` [I-501]: the maximal degradation (Dmax) was under 50% and the DC50 was over 1 µM.

Broadly, the Dmax is the greatest extent of degradation seen. High values mean deep degradation, low ones shallow degradation. The DC50 is the concentration giving 50% degradation.
